Data on 23 molecules can be found in ChEMBL document CHEMBL1137915, “SAR and factor IXa crystal structure of a dual inhibitor of factors IXa and Xa” (Bioorg Med Chem Lett, 2004).

In assay [1] the target is Coagulation factor IX (Homo sapiens, UniProt P00740). Put plainly: Binding affinity towards human factor IXa.
The target of assay [2] is Coagulation factor X (Homo sapiens, UniProt P00742). Nature of the assay: Binding affinity towards human factor Xa.
Sequence of Coagulation factor X (P00742 41-179 limits assumed): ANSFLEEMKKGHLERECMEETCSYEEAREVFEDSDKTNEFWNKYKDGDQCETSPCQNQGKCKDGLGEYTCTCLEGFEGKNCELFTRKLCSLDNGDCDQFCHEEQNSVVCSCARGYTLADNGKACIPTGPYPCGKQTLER
Sequence of Coagulation factor X (P00742 235-488 limits assumed): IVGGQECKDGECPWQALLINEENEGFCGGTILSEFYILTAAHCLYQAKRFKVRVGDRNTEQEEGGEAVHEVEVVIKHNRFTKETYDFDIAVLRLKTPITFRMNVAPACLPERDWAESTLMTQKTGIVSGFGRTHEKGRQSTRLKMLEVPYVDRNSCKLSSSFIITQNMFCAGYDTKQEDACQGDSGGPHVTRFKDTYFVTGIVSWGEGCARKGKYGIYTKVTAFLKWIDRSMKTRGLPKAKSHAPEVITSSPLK

Sequence of Coagulation factor IX (P00740 47-191 limits assumed): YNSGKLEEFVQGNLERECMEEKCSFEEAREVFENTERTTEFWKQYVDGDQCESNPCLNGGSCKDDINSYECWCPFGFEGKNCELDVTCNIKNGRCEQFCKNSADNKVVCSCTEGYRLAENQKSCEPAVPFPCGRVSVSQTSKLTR
Sequence of Coagulation factor IX (P00740 227-461 limits assumed): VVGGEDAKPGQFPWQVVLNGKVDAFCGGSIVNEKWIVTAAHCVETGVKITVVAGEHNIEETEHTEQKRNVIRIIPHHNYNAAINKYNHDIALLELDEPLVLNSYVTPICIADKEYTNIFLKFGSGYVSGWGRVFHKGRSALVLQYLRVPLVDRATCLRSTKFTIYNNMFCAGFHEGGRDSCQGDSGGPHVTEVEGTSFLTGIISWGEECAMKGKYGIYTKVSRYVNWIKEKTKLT

On to `N=C(N)c1cccc(-n2nc(-c3cccnc3)cc2C(=O)Nc2ccc(-n3cnc4ccccc43)cc2)c1`, for which the Ki (as a rule, a measure of affinity in units of concentration, obtained from inhibition or displacement) in assay [1] came to 5.5 nM.

For `N=C(N)c1cccc(-n2nc(C(F)(F)F)cc2C(=O)Nc2ccc(-n3cnc4cccnc43)cc2F)c1`, the Ki in assay [1] worked out at 13 nM; in assay [2], 0.02 nM.

In turn, `N=C(N)c1cccc(-n2nc(C(F)(F)F)cc2C(=O)Nc2ccc(-n3cnc4cc(C(F)(F)F)ccc43)cc2F)c1` had a Ki in assay [1] of 6.4 nM.

Turning to `N=C(N)c1cccc(-n2nc(-c3cccnc3)cc2C(=O)Nc2ccc(-n3cnc4cc(Cl)ccc43)cc2)c1`, the Ki in assay [1] worked out at 15 nM.

Turning to `N=C(N)c1cccc(-n2nc(Cn3ccnn3)cc2C(=O)Nc2ccc(-n3cnc4ccccc43)cc2)c1`, the Ki in assay [1] was 20 nM.

In the case of `N=C(N)c1cccc(-n2nc(C(F)(F)F)cc2C(=O)Nc2ccc(-n3cnc4ncccc43)cc2F)c1`, the Ki in assay [1] is 7.9 nM; in assay [2], 0.02 nM.

In the case of `N=C(N)c1cccc(-n2nc(C(F)(F)F)cc2C(=O)Nc2ccc(-n3ccnc3)cc2)c1`, the Ki came to 72 nM in assay [1] and 0.09 nM in assay [2].

Take `N=C(N)c1cccc(-n2nc(Cn3cncn3)cc2C(=O)Nc2ccc(-n3cnc4ccccc43)cc2)c1`: the inhibition constant Ki in assay [1] came out at 44 nM; in assay [2] it was 0.19 nM.

On to `N=C(N)c1cccc(-n2nc(C(F)(F)F)cc2C(=O)Nc2ccc(-n3ccc4ccccc43)cc2F)c1`, for which the Ki in assay [1] was 1700 nM.

In the case of `Cc1ccc2c(c1)ncn2-c1ccc(NC(=O)c2cc(C(F)(F)F)nn2-c2cccc(C(=N)N)c2)c(F)c1`, in assay [1], the inhibitory constant (Ki) turned out to be 10 nM.

Take `N=C(N)c1cccc(-n2nc(C(F)(F)F)cc2C(=O)Nc2ccc(-n3cnc4cc(Cl)ccc43)cc2F)c1`: the Ki in assay [1] amounted to 4.2 nM.

As to `N=C(N)c1cccc(-n2nc(C(F)(F)F)cc2C(=O)Nc2ccc(-n3cnc4ccccc43)cc2)c1`, the Ki worked out at 11 nM in assay [1] and 0.09 nM in assay [2].

As to `N=C(N)c1cccc(-n2nc(Cn3cnnn3)cc2C(=O)Nc2ccc(-n3cnc4ccccc43)cc2)c1`, in assay [1], the Ki came out at 11 nM.

On to `N=C(N)c1cccc(-n2nc(C(F)(F)F)cc2C(=O)Nc2ccc(N3C(=O)N=C4C=CC=CC43)cc2)c1` (stereo unspecified), for which the Ki in assay [1] was determined as 190 nM; in assay [2], 0.05 nM.

`N=C(N)c1cccc(-n2nc(C(F)(F)F)cc2C(=O)Nc2ccc(-n3cnc4cc(Cl)c(Cl)cc43)cc2F)c1`: the Ki in assay [1] was 26 nM.

Turning to `N=C(N)c1cccc(-n2nc(C(F)(F)F)cc2C(=O)Nc2ccc(-n3cnc4ccncc43)cc2F)c1`, the Ki in assay [1] worked out at 7.9 nM; in assay [2], 0.04 nM.

With `N=C(N)c1cccc(-n2nc(C(F)(F)F)cc2C(=O)Nc2ccc(-n3cnc4cc(N)ccc43)cc2F)c1`, the Ki in assay [1] came to 11 nM.

In assay [1], `Cc1cc(C(=O)Nc2ccc(-n3cnc4ccccc43)cc2)n(-c2cccc(C(=N)N)c2)n1` displayed a Ki of 82 nM.

Take `Cc1cc(C(=O)Nc2ccc(-c3ccccc3S(N)(=O)=O)cc2)n(-c2cccc(C(=N)N)c2)n1`: the Ki in assay [1] came out at 1900 nM.

Molecule `N=C(N)c1cccc(-n2nc(C(F)(F)F)cc2C(=O)Nc2ccc(-n3cnc4ccc(Cl)cc43)cc2F)c1` had a Ki in assay [1] of 5.1 nM.

Turning to `N=C(N)c1cccc(-n2nc(Cn3ccnc3)cc2C(=O)Nc2ccc(-n3cnc4ccccc43)cc2)c1`, in assay [1], the affinity, expressed as Ki, was 120 nM.

`N=C(N)c1cccc(-n2nc(C(F)(F)F)cc2C(=O)Nc2ccc(-n3cnc4cnccc43)cc2F)c1`: the inhibitory constant (Ki) in assay [1] came to 8 nM; in assay [2], 0.03 nM.

`N=C(N)c1cccc(-n2nc(C(F)(F)F)cc2C(=O)Nc2ccc(-n3cnc4cc([N+](=O)[O-])ccc43)cc2F)c1` showed a Ki in assay [1] of 11 nM.
